Reference: patent publication EP4722203A1, “3,4-DIHYDROPHTHALAZIN-1(2H)-ONE DERIVATIVE, AND PREPARATION METHOD THEREFOR AND USE THEREOF” (Academy of Military Medical Sciences, priority 2023, dated 2024)

Tests used:
[1] = test system: human multiple myeloma NCI-H929 xenograft tumors; test: In vivo activity in combination with dexamethasone against NCI-H929 transplanted tumor; set-up: species or system NOD/SCID mice; conditions: each drug 3 mg/kg, QD; for Tumor inhibition rate TGI (%) / Average volume (mm^3) (Day 10) / Initial volume (mm^3): oral gavage, alone or combined; for Tumor inhibition rate TGI (%): 10 consecutive days; for Initial volume (mm^3): baseline
Procedure: In this example, human multiple myeloma NCI-H929 cell line was selected as the cell model to determine the inhibitory effects of compound and dexamethasone alone, as well as combination thereof on the growth of NOD/SCID mouse transplanted tumors of NCI-H929 tumor cells. The evaluation methods and results are described below.
Human multiple myeloma NCI-H929 cells were routinely cultured in RPMI1640 containing 10% fetal bovine serum at 37°C in a 5% CO2 incubator. After three passages in vitro, when the cells reached over 80% confluence and the required confluence rate, the cells were digested and harvested. After washing with PBS, the cells were counted and the cell concentration was adjusted to approximately 5 × 10^7 cells/mL. The cells were then placed in 4 mL centrifuge tubes on ice for later use.
Female NOD/SCID mice aged 4-5 weeks were selected and subcutaneously inoculated with NCI-H929 cells ectopically. The mice were held in a lateral position, the forelimb axilla was disinfected with 75% alcohol, and 100 µL of the cell suspension was injected subcutaneously into the axilla using a 1 mL syringe ([…]/100 µL).
After the tumors grew to 90-150 mm^3, the animals were randomly divided into groups, 8 mice in each group, and administered according to different administration methods as follows: • Model control group: Administered with the same volume of Vehicle (DMSO: 0.5% sodium carboxymethyl cellulose: distilled water = 1:1:8) daily by gavage; • Test group 1: administered with dexamethasone (Dex) solution at 3 mg/kg (mouse body weight) daily by gavage; • Test group 2: administered with I-4 solution at 3 mg/kg (mouse body weight) daily by gavage; • Test group 3: administered with I-8 solution at 3 mg/kg (mouse body weight) daily by gavage; • Test group 4: administered with dexamethasone at 3 mg/kg (mouse body weight) and 1-4 solution at 3 mg/kg (mouse body weight) daily by gavage; • Test group 5: administered with dexamethasone at 3 mg/kg (mouse body weight) and I-8 solution at 3 mg/kg (mouse body weight) daily by gavage;
The route of administration was oral gavage, and the administration frequency was once daily, for 10 consecutive days. The first day of administration was defined as Day 1 of the experiment. Tumor volume changes in mice were measured and recorded every two days. Tumor volume was measured using a vernier caliper, in which the major axis (a) and minor axis (b) of the tumor were measured, and the tumor volume was calculated as tumor volume V (mm^3) = a x b^2/2. After the experiment, the mice were dissected and the tumor weight was measured. The data were entered and statistically analyzed using GraphPad Prism 6 software. The data are expressed as mean ± SEM (Standard Error of Mean), and one-way ANOVA was used. P ≤ 0.05 was considered statistically significant.

[2] = test system: NCI-H929-Lenalidomide-R cells; test: Antiproliferative activity against resistant cells, CCK-8 assay; assay type: cell-based; conditions: Homo sapiens, 144 hours incubation
Procedure: (§1) In this example, lenalidomide-resistant human multiple myeloma cells, including NCI-H929 (NCI-H929-Lenalidomide-R) and RPMI-8226 (RPMI-8226-Lenalidomide-R), and pomalidomide-resistant human multiple myeloma cells, including NCI-H929 (NCI-H929-pomalidomide-R) and RPMI-8226 (RPMI-8226-pomalidomide-R), were selected as cell models to determine the inhibitory activity of compound I-8 of the present invention against the proliferation of the resistant cells.
(§2) • ① I-8 was dissolved in DMSO to prepare a 10 mM stock solution. Compounds used within three months should be stored at room temperature in a desiccator; others could be stored at -20°C for long-term storage. • ② The I-8 stock solution and the reference compounds lenalidomide and pomalidomide were all diluted with DMSO. Their initial concentrations were 10 µM. In the experiments of lenalidomide-resistant human multiple myeloma cells (NCI-H929 (NCI-H929-Lenalidomide-R) and RPMI-8226 (RPMI-8226-Lenalidomide-R) and pomalidomide-resistant human multiple myeloma cells (NCI-H929 (NCI-H929-pomalidomide-R) and RPMI-8226 (RPMI-8226-pomalidomide-R), 3-fold serial dilution with 11 concentration points was performed, with the lowest concentration of […]. The resulting solutions were shaken on a shaker for 5 minutes.
(§3) • ① The NCI-H929-Lenalidomide-R, RPMI-8226-Lenalidomide-R, NCI-H929-pomalidomide-R, and RPMI-8226-pomalidomide-R cells in logarithmic growth phase were inoculated in a 96-well plate, 20,000 to 30,000 cells per well, and the plate was pre-cultured for 24 hours in an incubator (at 37°C and 5% CO2). • ® The culture medium in the plate was replaced, and the compounds and the positive controls with corresponding concentrations were added to the plated at a volume of 50 µL. • ③ The plate was incubated for 144 hours in an incubator, then 15 µL of CCK-8 solution was added to each well, and the plate was incubated in the incubator for another 1-4 hours. • ④ The absorbance at 450 nm was measured using a microplate reader.
(§4) • ① Calculating % Inhibition: [formula] • ② Calculating IC50 value of compound and plotting dose-response curve: The IC50 value was calculated by fitting the % Inhibition and the logarithm of compound concentration to a nonlinear regression (dose response-variable slope) by using GraphPad 6.0. Y = Bottom + (Top−Bottom)/(1+10^(∧)((LogIC50−X)*HillSlope)) [formula] X: log of inhibitor concentration; Y: % Inhibition.
(§5) After calculating % Inhibition, a dose-response curve was plotted with the logarithm of the test compound concentration as the x-axis and the average cell viability as the y-axis, and the IC50 value was obtained by fitting.

[3] = test system: NCI-H929-pomalidomide-R cells; test: as above; assay type: cell-based; conditions: Homo sapiens, 144 hours incubation
Procedure: as §1, §2, §3, §4, §5

[4] = test system: RPMI-8226-Lenalidomide-R cells; test: as above; assay type: cell-based; conditions: Homo sapiens, 144 hours incubation
Procedure: as §1, §2, §3, §4, §5

[5] = test system: RPMI-8226-pomalidomide-R cells; test: as above; assay type: cell-based; conditions: Homo sapiens, 144 hours incubation
Procedure: as §1, §2, §3, §4, §5

IC50 [2] [µM] | IC50 [3] [µM] | IC50 [4] [µM] | IC50 [5] [µM] | Compound | growth of NCI-H929 transplanted tumors (in words) [1] | Tumor inhibition rate TGI (%) [1] [%] | Average volume (mm^3) (Day 10) [1] | Initial volume (mm^3) [1] [mm^3]
0.055 | 0.095 | 0.246 | 0.314 | CN1Cc2c(NCc3ccc(CN4CCN(c5ccc(C#N)c(F)c5)CC4)cc3)cccc2C(=O)N1C1CCC(=O)NC1=O (stereo not shown) [I-8] | effectively inhibit the growth | 82.64 | 458.1 | 183.3
– | – | – | – | CN1Cc2c(N)cccc2C(=O)N1C1CCC(=O)NC1=O (stereo not shown) [I-4, 3-(5-amino-3-methyl-1-oxo-3,4-dihydrophthalazin-2(1H)-yl)piperidin-2,6-dione] | effectively inhibit the growth | 68.03 | 689.9 | 183.9
> 100 | > 100 | > 100 | > 100 | Nc1cccc2c1C(=O)N(C1CCC(=O)NC1=O)C2=O (stereo not shown) [Pomalidomide, reference compound] | – | – | – | –
